Measured values published in patent publication US20260062412A1, “NITROGEN-CONTAINING HETEROCYCLIC COMPOUND HAVING MYT1 INHIBITORY ACTIVITY” (CHUGAI SEIYAKU KABUSHIKI KAISHA, priority 2023, published 2026).

Columns and labels:
MYT1 protein [1] = biological target: T1, MYT1 protein (Homo sapiens (Human), UniProt Q99640); assay: MYT1 kinase activity inhibition test (ELISA, phosphorylation of Y15 of CDK1); format: biochemical; settings: phosphorylation level of Y15 of CDK1 protein caused by MYT1 protein, 60 minutes
Description: The MYT1 kinase activity inhibitory capacity of each compound was evaluated by evaluating the phosphorylation level of Y15 of CDK1 protein caused by MYT1 protein, by ELISA. The kit of CycLex Weel Kinase Assay/Inhibitor Screening Kit Ver. 3 (manufactured by MBL, CY-1172V3) was used. Using Kinase Buffer, 10 μL of 5 nM MYT1 protein (manufactured by Carna Biosciences, Inc.) was prepared. In addition, 30 μL of 83.3 μM of ATP was prepared using Kinase Buffer. In addition, 10 μL of each compound was diluted to each concentration using Kinase Buffer. 30 μL of ATP was added to the plate of the kit, and thereafter, 10 μL of each compound was added thereto. Further, 10 μL of the diluted MYT1 protein solution was added thereto, and then the mixture was mixed, which was allowed to stand at room temperature for 60 minutes. The reaction solution was removed from each well, and each well was washed using Wash Buffer. After Wash Buffer was removed, 100 μL of HRP conjugated Anti-phospho-tyrosine antibody was added to each well, which was allowed to stand at room temperature for 60 minutes. Thereafter, the reaction solution was removed from each well, and each well was washed using Wash Buffer. After Wash Buffer was removed, 100 μL of Substrate Reagent was added to each well, which was allowed to stand at room temperature for 8 minutes. Thereafter, 100 μL of Stop Solution (1 N sulfuric acid) was added to each well according to the manual. Absorbances at 450 nm and 590 nm were measured using Envision (manufactured by PerkinElmer). The phosphorylation level of CDK1 protein was evaluated for each well by subtracting the absorbance at 590 nm from the absorbance at 450 nm. The inhibition rate of each compound added at each concentration was calculated by setting the signal when the compound was not added as 100% and the signal when MYT1 protein was not added as 0%, and the calculation results of IC50 were shown in Table 4.

LU65 = assay: Cytotoxicity test with pemetrexed upon addition of each example compound (CellTiter-Glo); format: cell-based, human; settings: combination with pemetrexed, LU65 cells, 7 days; maximum value, at the MYT1 inhibitor and pemetrexed concentrations
Description: LU65 (received from human tissue bank (JCRB Cell Bank)) was used in the evaluation of the present invention. LU65 is a lung cancer cell line having a truncated deletion mutation of S82* in RB1 gene (see Nature. 2019 May; 569(7757): 503-508. (Non Patent Literature 22)), in which the function of RB1 is decreased. The cell culture was carried out using RPMI-1640 (manufactured by SIGMA) containing 10% FBS (manufactured by SIGMA).
Each pemetrexed (manufactured by Tokyo Kasei Kogyo Co., Ltd.) and each example compound of each concentration were diluted using a DMSO solution, and 0.04 μL of each of series of dilution and DMSO was added to each well of cell culture plate using Echo 555 Liquid Handler (manufactured by Beckman Coulter Inc.). 1000 LU65 cells ([…]) were added to each well, which was cultured at 37° C. in a 5% CO2 incubator for 7 days. Intracellular ATP level which is a cell survival marker was measured and used in the monitoring of cell number. After culturing, 20 μL of CellTiter-Glo (registered trademark) 2.0 (manufactured by Promega) was added to each well, and the emission intensity was measured using Multimode Plate Reader En Vision (registered trademark) Xcite (manufactured by PerkinElmer). The cell survival rate under each condition was calculated by setting the value obtained by subtracting the luminescence of the cell unseeded well from the luminescence of the DMSO-added well as 100%, and calculating the proportion of a value obtained by subtracting the luminescence of the cell unseeded well from the luminescence detected at each well.
In addition, the cytotoxic activity under each condition was calculated by subtracting the survival rate in a combination of pemetrexed of each treatment concentration and each example compound of each treatment concentration, from 100%.

MYT1 protein [2] = biological target: T1, MYT1 protein; assay: Test for binding to ATP binding site of MYT1 (Kinase Tracer 178 / Eu-Anti-GST antibody TR-FRET); settings: ATP binding site of MYT1, 30 minutes at room temperature

T1 sequence (Q99640 whole entry): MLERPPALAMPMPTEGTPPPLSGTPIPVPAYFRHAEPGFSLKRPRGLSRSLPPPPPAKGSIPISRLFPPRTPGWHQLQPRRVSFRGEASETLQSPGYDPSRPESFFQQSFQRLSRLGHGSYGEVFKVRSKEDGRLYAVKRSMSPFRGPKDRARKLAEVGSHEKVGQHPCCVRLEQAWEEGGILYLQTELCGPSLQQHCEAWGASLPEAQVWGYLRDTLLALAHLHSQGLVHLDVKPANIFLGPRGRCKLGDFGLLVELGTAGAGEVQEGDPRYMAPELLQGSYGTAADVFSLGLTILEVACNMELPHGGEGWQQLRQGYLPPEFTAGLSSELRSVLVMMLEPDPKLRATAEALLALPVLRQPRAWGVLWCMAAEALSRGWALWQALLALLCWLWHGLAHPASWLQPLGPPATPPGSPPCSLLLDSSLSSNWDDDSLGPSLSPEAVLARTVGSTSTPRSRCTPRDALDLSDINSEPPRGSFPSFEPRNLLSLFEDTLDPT

Compound | IC50 (MYT1 protein [1]) [nM] | Bliss Score (Max) (LU65) [%] | HSA Score (MAX) (LU65) [%] | IC50 (MYT1 protein [2]) [nM]
Nc1c(-c2ccc(F)c3[nH]ncc23)c2cc(C3CCC4(CC3)OCCO4)c3ncccc3c2[nH]c1=O.O=C(O)C(F)(F)F [Compound C101, 3-Amino-6-(1,4-dioxaspiro[4.5]decan-8-yl)-4-(7-fluoro-1H-indazol-4-yl)-1H-1,7-phenanthrolin-2-one 2,2,2-trifluoroacetate] | 7.1 | 46 | 64 | 6.1
CCOc1cc2c(-c3ccc(F)c4[nH]ncc34)c(N)c(=O)[nH]c2c2cccnc12 [Compound C8, 3-Amino-6-ethoxy-4-(7-fluoro-1H-indazol-4-yl)-1H-1,7-phenanthrolin-2-one] | 0.3 | 68 | 78 | 1.6
Nc1c(-c2ccc(F)c3[nH]ncc23)c2cc(C3CCC3)c3ncccc3c2[nH]c1=O [Compound C91, 3-Amino-6-cyclobutyl-4-(7-fluoro-1H-indazol-4-yl)-1H-1,7-phenanthrolin-2-one] | 1.1 | 59 | 61 | 10
Nc1c(-c2ccc(F)c3[nH]ncc23)c2cc(C3CCCC3)c3ncccc3c2[nH]c1=O [Compound C92, 3-Amino-6-cyclopentyl-4-(7-fluoro-1H-indazol-4-yl)-1H-1,7-phenanthrolin-2-one] | 1.7 | 56 | 68 | 19
Nc1c(-c2ccc(F)c3[nH]ncc23)c2cc(C3CC3)c3ccccc3c2[nH]c1=O [Compound B22, 3-Amino-6-cyclopropyl-4-(7-fluoro-1H-indazol-4-yl)-1H-benzo[h]quinolin-2-one] | 0.25 | 56 | 64 | 11
Nc1c(-c2ccc(F)c3[nH]ncc23)c2cc(C3CC3)c3cnccc3c2[nH]c1=O.O=C(O)C(F)(F)F [Compound P4, 3-Amino-6-cyclopropyl-4-(7-fluoro-1H-indazol-4-yl)-1H-1,8-phenanthrolin-2-one 2,2,2-trifluoroacetate] | 5.9 | 56 | 67 | 6.1
Nc1c(-c2cccc3[nH]ncc23)c2cc(C3CC3)c3cnccc3c2[nH]c1=O [Compound P1, 3-Amino-6-cyclopropyl-4-(1H-indazol-4-yl)-1H-1,8-phenanthrolin-2-one] | 0.22 | 49 | 55 | 1.8
Nc1c(-c2cc(F)c(Cl)c3[nH]ncc23)c2cc(C3CC3)c3ncccc3c2[nH]c1=O [Compound C195, 3-Amino-4-(7-chloro-6-fluoro-1H-indazol-4-yl)-6-cyclopropyl-1H-1,7-phenanthrolin-2-one] | 0.24 | 52 | 65 | 2.3
Nc1c(-c2ccc(F)c3[nH]ncc23)c2cc(C3CCN(C4CCOCC4)CC3)c3ncccc3c2[nH]c1=O [Compound C137, 3-Amino-4-(7-fluoro-1H-indazol-4-yl)-6-[1-(oxan-4-yl)piperidin-4-yl]-1H-1,7-phenanthrolin-2-one] | 7.7 | 45 | 56 | 4.7
Nc1c(-c2cccc3[nH]ncc23)c2cc(C3CC3)c3ncccc3c2[nH]c1=O [Compound C185, 3-Amino-6-cyclopropyl-4-(1H-indazol-4-yl)-1H-1,7-phenanthrolin-2-one] | 0.31 | 55 | 68 | 2.8
Nc1c(-c2ccc(F)c3[nH]ncc23)c2cc(F)c3ccccc3c2[nH]c1=O [Compound B35, 3-Amino-6-fluoro-4-(7-fluoro-1H-indazol-4-yl)-1H-benzo[h]quinolin-2-one] | 0.44 | 61 | 70 | 3.7
CN1CCC(c2cc3c(-c4ccc(F)c5[nH]ncc45)c(N)c(=O)[nH]c3c3cccnc23)CC1 [Compound C138, 3-Amino-4-(7-fluoro-1H-indazol-4-yl)-6-(1-methylpiperidin-4-yl)-1H-1,7-phenanthrolin-2-one] | < 4.6 | 73 | 73 | 2
Nc1c(-c2ccc(Cl)c3[nH]ncc23)c2cc(C3CC3)c3ncccc3c2[nH]c1=O [Compound C143, 3-Amino-4-(7-chloro-1H-indazol-4-yl)-6-cyclopropyl-1H-1,7-phenanthrolin-2-one] | 0.2 | 50 | 67 | 2.7
CC(C)N1CCC(c2cc3c(-c4ccc(F)c5[nH]ncc45)c(N)c(=O)[nH]c3c3cccnc23)CC1.O=CO [Compound C136, 3-Amino-4-(7-fluoro-1H-indazol-4-yl)-6-(1-propan-2-ylpiperidin-4-yl)-1H-1,7-phenanthrolin-2-one; formate] | 8.3 | 45 | 57 | 3.4
Nc1c(-c2ccc(F)c3[nH]ncc23)c2cc(C3CC3)c3ncccc3c2[nH]c1=O [Compound C84, 3-amino-6-cyclopropyl-4-(7-fluoro-1H-indazol-4-yl)-1H-1,7-phenanthrolin-2-one] | 0.25 | 68 | 70 | 2.3
Nc1c(-c2ccc(F)c3[nH]ncc23)c2cc(O[C@H]3C[C@H](F)C3)c3nccnc3c2[nH]c1=O [Compound G16, 8-Amino-5-((1,3r)-3-fluorocyclobutyl)oxy-7-(7-fluoro-1H-indazol-4-yl)-10H-pyrido[2,3-f]quinoxalin-9-one] | 0.086 | 50 | 58 | 0.91
Nc1c(-c2ccc(Cl)c3[nH]ncc23)c2cc(Cl)ccc2[nH]c1=O [Compound A59, 3-Amino-6-chloro-4-(7-chloro-1H-indazol-4-yl)-1H-quinolin-2-one] | 0.6 | 55 | 58 | 5.8
COc1cc2c(-c3cc(F)c(Cl)c4[nH]ncc34)c(N)c(=O)[nH]c2c2cccnc12 [Compound C76, 3-Amino-4-(7-chloro-6-fluoro-1H-indazol-4-yl)-6-methoxy-1H-1,7-phenanthrolin-2-one] | 0.092 | 68 | 67 | 1.5
Nc1c(-c2ccc(F)c3[nH]ncc23)c2ccc3ccccc3c2[nH]c1=O [Compound B32, 3-Amino-4-(7-fluoro-1H-indazol-4-yl)-1H-benzo[h]quinolin-2-one] | 0.26 | 52 | 63 | 3
Nc1c(-c2ccc(F)c3[nH]ncc23)c2cc(C3CCNC3)c3ncccc3c2[nH]c1=O.O=CO (stereo not drawn) [Compound C146, 3-Amino-4-(7-fluoro-1H-indazol-4-yl)-6-pyrrolidin-3-yl-1H-1,7-phenanthrolin-2-one; formate] | 16 | 44 | 44 | 3.4
Nc1c(-c2ccc(F)c3[nH]ncc23)c2cc(/C=C/CCO)c3ncccc3c2[nH]c1=O [Compound C100, 3-Amino-4-(7-fluoro-1H-indazol-4-yl)-6-[(E)-4-hydroxybut-1-enyl]-1H-1,7-phenanthrolin-2-one] | 5.5 | 46 | 50 | 1.5
